Legend:
Assay in all cases: Test C preemergence
Assay type in all cases: in vivo
[1] = test system: Galium (catchweed bedstraw, Galium aparine); conditions: for Plant response rating, Galium: scale 0 to 100, 0 no effect, 100 complete control
Procedure, shortened: (§1)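 Greenhouse test: seeds in a loam and sand blend treated preemergence, or seedlings at the 1- to 4-leaf stage (2 to 18 cm) in a peat, vermiculite and limestone mix treated postemergence, with test chemicals in a surfactant-containing non-phytotoxic solvent. Scored by eye at 13 to 15 d relative to controls, 0 (no effect) to 100 (complete control).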

[2] = test system: barnyardgrass (Echinochloa crus-galli); conditions: for Plant response rating, Barnyardgrass: scale 0 to 100, 0 no effect, 100 complete control
Procedure, shortened: as §1

[3] = test system: blackgrass (Alopecurus myosuroides); conditions: for Plant response rating, Blackgrass: scale 0 to 100, 0 no effect, 100 complete control
Procedure, shortened: as §1

corn (Zea mays) = conditions: for Plant response rating, Corn: scale 0 to 100, 0 no effect, 100 complete control
Procedure, shortened: as §1

[4] = test system: crabgrass, large (large crabgrass, Digitaria sanguinalis); conditions: for Plant response rating, Crabgrass, Large: scale 0 to 100, 0 no effect, 100 complete control
Procedure, shortened: as §1

[5] = test system: foxtail, giant (giant foxtail, Setaria faberii); conditions: for Plant response rating, Foxtail, Giant: scale 0 to 100, 0 no effect, 100 complete control
Procedure, shortened: as §1

[6] = test system: lambsquarters (Chenopodium album); conditions: for Plant response rating, Lambsquarters: scale 0 to 100, 0 no effect, 100 complete control
Procedure, shortened: as §1

[7] = test system: morningglory (Ipomoea coccinea); conditions: for Plant response rating, Morningglory: scale 0 to 100, 0 no effect, 100 complete control
Procedure, shortened: as §1

[8] = test system: nutsedge, yellow (yellow nutsedge, Cyperus esculentus); conditions: for Plant response rating, Nutsedge, Yellow: scale 0 to 100, 0 no effect, 100 complete control
Procedure, shortened: as §1

[9] = test system: oilseed rape (Brassica napus); conditions: for Plant response rating, Oilseed Rape: scale 0 to 100, 0 no effect, 100 complete control
Procedure, shortened: as §1

[10] = test system: pigweed (Amaranthus retroflexus); conditions: for Plant response rating, Pigweed: scale 0 to 100, 0 no effect, 100 complete control
Procedure, shortened: as §1

[11] = test system: ragweed (common ragweed, Ambrosia elatior); conditions: for Plant response rating, Ragweed: scale 0 to 100, 0 no effect, 100 complete control
Procedure, shortened: as §1

[12] = test system: ryegrass, Italian (Italian ryegrass, Lolium multiflorum); conditions: for Plant response rating, Ryegrass, Italian: scale 0 to 100, 0 no effect, 100 complete control
Procedure, shortened: as §1

soybean (Glycine max) = conditions: for Plant response rating, Soybean: scale 0 to 100, 0 no effect, 100 complete control
Procedure, shortened: as §1

[13] = test system: velvetleaf (Abutilon theophrasti); conditions: for Plant response rating, Velvetleaf: scale 0 to 100, 0 no effect, 100 complete control
Procedure, shortened: as §1

[14] = test system: waterhemp (common waterhemp, Amaranthus rudis); conditions: for Plant response rating, Waterhemp: scale 0 to 100, 0 no effect, 100 complete control
Procedure, shortened: as §1

[15] = test system: wheat (winter wheat, Triticum aestivum); conditions: for Plant response rating, Wheat: scale 0 to 100, 0 no effect, 100 complete control
Procedure, shortened: as §1

[16] = 31 g ai/ha, 0 is no effect, 100 is complete control

CN1CC(c2cccc(C(F)(F)F)c2)C(C(=O)Nc2cccc(F)c2F)C1=O (centres unmarked) [Compound 636]
Plant response rating (scale of 0 to 100), Galium [1, 16]: 85 | Plant response rating, Galium ([1]; 62 g ai/ha): 85 | Plant response rating, Galium ([1]; 125 g ai/ha): 90 | Plant response rating, Galium ([1]; 250 g ai/ha): 90 | Plant response rating (scale of 0 to 100), Barnyardgrass [2, 16]: 90 | Plant response rating, Barnyardgrass ([2]; 62 g ai/ha): 90 | Plant response rating, Barnyardgrass ([2]; 125 g ai/ha): 95 | Plant response rating, Barnyardgrass ([2]; 250 g ai/ha): 95 | Plant response rating (scale of 0 to 100), Blackgrass [3, 16]: 90 | Plant response rating, Blackgrass ([3]; 62 g ai/ha): 85 | Plant response rating, Blackgrass ([3]; 125 g ai/ha): 90 | Plant response rating, Blackgrass ([3]; 250 g ai/ha): 90 | Plant response rating (scale of 0 to 100), Corn (corn (Zea mays); [16]): 60 | Plant response rating, Corn (corn (Zea mays); 62 g ai/ha): 80 | Plant response rating, Corn (corn (Zea mays); 125 g ai/ha): 85 | Plant response rating, Corn (corn (Zea mays); 250 g ai/ha): 90 | Plant response rating (scale of 0 to 100), Crabgrass, Large [4, 16]: 95 | Plant response rating, Crabgrass, Large ([4]; 62 g ai/ha): 98 | Plant response rating, Crabgrass, Large ([4]; 125 g ai/ha): 100 | Plant response rating, Crabgrass, Large ([4]; 250 g ai/ha): 100 | Plant response rating (scale of 0 to 100), Foxtail, Giant [5, 16]: 85 | Plant response rating, Foxtail, Giant ([5]; 62 g ai/ha): 90 | Plant response rating, Foxtail, Giant ([5]; 125 g ai/ha): 90 | Plant response rating, Foxtail, Giant ([5]; 250 g ai/ha): 90 | Plant response rating (scale of 0 to 100), Lambsquarters [6, 16]: 40 | Plant response rating, Lambsquarters ([6]; 62 g ai/ha): 40 | Plant response rating, Lambsquarters ([6]; 125 g ai/ha): 55 | Plant response rating, Lambsquarters ([6]; 250 g ai/ha): 65 | Plant response rating (scale of 0 to 100), Morningglory [7, 16]: 5 | Plant response rating, Morningglory ([7]; 62 g ai/ha): 25 | Plant response rating, Morningglory ([7]; 125 g ai/ha): 35 | Plant response rating, Morningglory ([7]; 250 g ai/ha): 65 | Plant response rating (scale of 0 to 100), Nutsedge, Yellow [8, 16]: 0 | Plant response rating, Nutsedge, Yellow ([8]; 62 g ai/ha): 75 | Plant response rating, Nutsedge, Yellow ([8]; 125 g ai/ha): 0 | Plant response rating, Nutsedge, Yellow ([8]; 250 g ai/ha): 60 | Plant response rating (scale of 0 to 100), Oilseed Rape [9, 16]: 80 | Plant response rating, Oilseed Rape ([9]; 62 g ai/ha): 60 | Plant response rating, Oilseed Rape ([9]; 125 g ai/ha): 85 | Plant response rating, Oilseed Rape ([9]; 250 g ai/ha): 90 | Plant response rating (scale of 0 to 100), Pigweed [10, 16]: 60 | Plant response rating, Pigweed ([10]; 62 g ai/ha): 70 | Plant response rating, Pigweed ([10]; 125 g ai/ha): 80 | Plant response rating, Pigweed ([10]; 250 g ai/ha): 85 | Plant response rating (scale of 0 to 100), Ragweed [11, 16]: 20 | Plant response rating, Ragweed ([11]; 62 g ai/ha): 65 | Plant response rating, Ragweed ([11]; 125 g ai/ha): 65 | Plant response rating, Ragweed ([11]; 250 g ai/ha): 80 | Plant response rating (scale of 0 to 100), Ryegrass, Italian [12, 16]: 70 | Plant response rating, Ryegrass, Italian ([12]; 62 g ai/ha): 30 | Plant response rating, Ryegrass, Italian ([12]; 125 g ai/ha): 50 | Plant response rating, Ryegrass, Italian ([12]; 250 g ai/ha): 90 | Plant response rating (scale of 0 to 100), Soybean (soybean (Glycine max); [16]): 0 | Plant response rating, Soybean (soybean (Glycine max); 62 g ai/ha): 75 | Plant response rating, Soybean (soybean (Glycine max); 125 g ai/ha): 0 | Plant response rating, Soybean (soybean (Glycine max); 250 g ai/ha): 0 | Plant response rating (scale of 0 to 100), Velvetleaf [13, 16]: 5 | Plant response rating, Velvetleaf ([13]; 62 g ai/ha): 50 | Plant response rating, Velvetleaf ([13]; 125 g ai/ha): 55 | Plant response rating, Velvetleaf ([13]; 250 g ai/ha): 55 | Plant response rating (scale of 0 to 100), Waterhemp [14, 16]: 65 | Plant response rating, Waterhemp ([14]; 62 g ai/ha): 75 | Plant response rating, Waterhemp ([14]; 125 g ai/ha): 85 | Plant response rating, Waterhemp ([14]; 250 g ai/ha): 85 | Plant response rating (scale of 0 to 100), Wheat [15, 16]: 35 | Plant response rating, Wheat ([15]; 62 g ai/ha): 45 | Plant response rating, Wheat ([15]; 125 g ai/ha): 65 | Plant response rating, Wheat ([15]; 250 g ai/ha): 75

Source: patent publication US12077503B2, “Substituted cyclic amides and their use as herbicides” (FMC CORPORATION, priority 2015, dated 2024)
